Test results taken from patent US5614562A, “Method of treating drug resistant tumor cells using organoselenones” (The University of Sourthern California, priority 1992, dated 1997).
Values after ≈ are worked out from the molar mass of the structure shown.

Experiments:
[1] = type: physicochemical; settings: FIG. 1 experiments
HCT/VP35 = test: In vitro cytotoxicity, VP16 resistant HCT/VP35 human colon carcinoma; type: cell-based
Description: | HCT/VP35 human colon, VP16 resistant

L1210/L-PAM = test: Cytotoxicity, 48-hr exposure of L-PAM resistant L1210/L-PAM leukemia cells; type: cell-based, murine; settings: 48-hr exposure
Description: (§1) Murine L1210 leukemia cells sensitive (L1210/0) and resistant (L1210/L-PAM)to L-phenylalanine mustard were obtained that are adaptable to either in vitro or in vivo passage.
(§2) Broad resistance of the L1210/L-PAM cell line is shown by the approximately 4-fold and 9-fold increases in IC50, compared to L1210/0, for L-PAM and mechlorethamine, respectively (Comparative Examples 3 and 4). […].

[2] = Swain-Scott product competition of nitrogen and oxygen nucleophiles vs NBP (second-order rate constant ratios); type: physicochemical
Description: (§3) The properties of nucleophilicity and electivity can be quantitatively expressed as n and s constants in the Swain-Scott linear free energy relationship. It has been shown that s and n constants of biological alkylating agents and nucleophiles, respectively, can be readily determined with high precision, using 4-(4-nitrobenzyl)pyridine (NBP) as a competitive substrate for alkyl product formation (Spears, C. P. Mol. Pharmacl.19:496-504,1981; Barbin,A.,Bereziat, A., O'Neill, I. K., and Bartsch, H. Chem.-Biol. Interact,73:261-277, 1990; Kang, S. I., and Spears,C. P. J. Med. Chem. 33:1544-1547, 1990). Broad-spectrum antitumor alkylating agents show uniformly high s constants Spears, C. P. Mol.Pharmacol. 19:496-504, 1981; in contrast, mutagenically efficient alkylating agents show low values (Peterson,A. R., Landolph, J. R., Peterson, H., Spears, C. P., and Heidelberger, C. Cancer Res. 41:3095-3099, 1981; Barbin, A., and Bartsch, H. Mut. Res.215:95-106, 1989).
(§4) FIG. 1 is a Swain-Scott plot of the ratio of second-order rate constants, log (ky /knbp) for several model sulfur, nitrogen, and oxygen nucleophiles in their reactions with 2-chloroethyl 4-methoxy-phenyl selenone ("CEMOS"), vs. their published nucleophilicity nCH3 Br constants. Values of n were taken to be 2.72 for acetate (AcO--), 3.3 for ascorbate, 3.6 for pyridine, 4.0 for azide (N3), 3.94 for nitrite, 5.1 for thiol (SH), 6.18 for sulfite (SO3^2-), 6.36 for thiosulfate (S2 O3^2-), and 6.6 for thiophosphate (HPSO3^2-) (derived from the Ogston "Competition Factor") (Ogston, A. G., Holiday, E. R., Philpot, J. S. L., and Stocken, L. A. Trans.Faraday Soc. 44:45-52, 1948).
The slope of the linear regression equation through the 5 nitrogen and oxygen nucleophiles gives a Swain-Scott selectivity constant, s, equal to 1.79, by Eq. A, shown in FIG. 1:
(§5) ^a By competition between S2 O3^2- and NBP log(kS
(§6) /knbp) or N3^- and NBP log(kN /knbp ) at
(§7) 37° C. and 10 h, in 52% aqueous acetone, using initial
(§8) concentrations of 0.0435 mM and 0.0217 mM of 2chloroethyl phenyl selenone
(§9) and nornitrogen mustard, respectively, as described. Values, experimental

HCT/VM46 = test: In vitro cytotoxicity, VM26 resistant HCT/VM46 human colon carcinoma; type: cell-based
Description: | HCT/VM46 human colon, VM26 resistant

[3] = Swain-Scott product competition of sulfur nucleophiles vs NBP (second-order rate constant ratios); type: physicochemical
Description: as §3, §4
Extrapolation of Eq. A predicts that the log (ky /knbp) values for the thiol nucleophiles should have ranged from 3 to 5. However, the measured ratios of second-order rate constants were approximately 100-fold lower than this expectation. Also, the linear regression relationship, Eq. B (FIG. 1), for correlation of log (ky /knbp) values vs. nCH3 Br constants gave a sulfur nucleophile selectivity constant, s, equal to 0.84, approximately one-half of the value for reaction with nitrogen and oxygen nucleophiles:
as §5, §6, §7, §8, §9

[4] = literature value; cited from earlier work
HCT116 = test: In vitro cytotoxicity, HCT116 human colon carcinoma; type: cell-based; settings: Homo sapiens, HCT-116; data provided by Bristol-Myers Laboratories
Description: ^b Cell lines: HCT116 human colon (sensitive to VP16 and VM26)

[5] = test system: P388 murine leukemia ascites cells; test: In vivo growth inhibition of P388 leukemia ascites in mice; design: species or system murine; BDF1 mice
Method: In FIG. 2 and Table II are shown the results of in vivo antitumor testing of 2-chloroethyl aryl selenones against murine P388 Leukemia ascites cells.
Examples 5-8 consisted of the use of 2-chloroethyl 4-methoxy-phenyl selenone to treat the mice. Examples 9-12 were the same as example 5 except 2-chloroethyl phenyl selenone was employed.
The maximally tolerated duration of the highest dose shown in FIG. 2 and Table II, 6 mg/kg/day i.p. of 2-chloroethyl phenyl selenone, was 10 days in a separate experiment. In the experiments shown, i.p. drug was administered for 5 consecutive days, Days 1-5, beginning the day after tumor inoculation (on Day 0).
Mice were inoculated i.p. with 1×10^6 cells of P388 murine leukemia ascites passaged in BDF1 mice, in a volume of 0.1 ml. The selenones were formulated in normal (0.9%, w/v) NaCl for an injection volume of 0.3 ml. Control mice (12 in each group) received i.p. saline alone comparative examples 1 and 2. For each dose level and drug, 6 mice per group were used.
The plateauing of weight increase, at Days 8-9, is consistent with classical Gompertizian tumor growth kinetics (Laird, A. K. Brit. J. Cancer 18:490-502, 1964). The delays observed in the time period before the onset of the exponential phase of weight increase are given in Table II, defined as the Growth Delay.
^a Calculated from Day at which weight first exceeded baseline (Day 0

L1210/0 = test: Cytotoxicity, 48-hr exposure of L1210/0 leukemia cells; type: cell-based, murine; settings: Mus musculus, L1210/0; 48-hr exposure; read-out: IC50 L1210/0
Description: as §1, §2

[6] = IC50 divided by IC50 for HCT116

## COc1ccc([Se](=O)(=O)CCCl)cc1 [2-chloroethyl 4-methoxy-phenyl selenone]
[1]
  alkylating activity in the FIG. 1 experiments: 103%
HCT/VP35; Homo sapiens, HCT/VP35, VP16 resistant, data provided by Bristol-Myers Laboratories
  IC50: 0.6 µg/mL (≈ 2.13 µM)
HCT/VP35; [6]
  ratio of IC50 values HCT/VP35 vs HCT116: 0.6
L1210/L-PAM
  Ratio of IC50s (L1210/L-PAM vs L1210/0): 0.9
L1210/L-PAM; Mus musculus, L1210/LPAM, read-out: IC50 L1210/L-PAM
  IC50: 360 nM
[2]; 5 nitrogen and oxygen nucleophiles, Eq. A, FIG. 1
  Swain-Scott selectivity constant, s (nitrogen and oxygen nucleophiles): 1.79
[2]; from intercept of Eq. A
  susceptibility to aqueous hydrolysis: extremely low susceptibility
[2]; n=3.6 (pyridine)
  log (ky/knbp) at n=3.6: nearly zero
[2]; nitrogen and oxygen nucleophiles, Eq. A, listed as CEMOS
  intercept of Eq. A, log (ky/knbp) vs. nCH3Br: 6.40
HCT/VM46; Homo sapiens, VM26 resistant, data provided by Bristol-Myers Laboratories
  IC50: 0.42 µg/mL (≈ 1.49 µM)
HCT/VM46; [6]
  ratio of IC50 values HCT/VM46 vs HCT116: 0.4
[3]
  selectivity within the thiol series: abnormally low
[3]; sulfur nucleophiles vs. extrapolation of Eq. A
  measured ratios of second-order rate constants lower than expectation: approximately 100 fold
[3]; sulfur nucleophiles, Eq. B, FIG. 1
  sulfur nucleophile selectivity constant, s: 0.84
[4]
  alkylating activity reported (Kang and Spears 1990): 100%
HCT116
  IC50: 1.01 µg/mL (≈ 3.59 µM)
[5]; 0.5 mg/kg daily i.p., Days 1-5 (total 2.5 mg/kg), Ex. 5
  Growth delay: 0 days
[5]; 1.0 mg/kg daily i.p., Days 1-5 (total 5 mg/kg), Ex. 6, Ex. 9
  Growth delay: 0 days
[5]; 2.0 mg/kg daily i.p., Days 1-5 (total 10 mg/kg), Ex. 7, Ex. 10
  Growth delay: 3 days
[5]; 4.0 mg/kg daily i.p., Days 1-5 (total 20 mg/kg), Ex. 8, Ex. 11
  Growth delay: 7 days
[5]; vs. parent 2-chloroethyl phenyl selenone
  relative antitumor effectiveness: less effective than the parent 2-chloroethyl phenyl selenone
L1210/0
  IC50: 360 nM
